Test results taken from US9682928B2 (NeuroPro Therapeutics, Inc., priority 2009, dated 2017).
Like-named read-outs stand apart in the source and are kept apart here.

Legend:
[1] = system: adult mice (C57/B16); experiment: Mesial temporal lobe epilepsy model (mice), hippocampal discharges; format: in vivo, mouse; conditions: 50 mg/kg for NTP-2014 and NTP-2026; 150 mg/kg for NTP-2024, NTP-2006, NTP-1007, NTP-1003
Description: Antiepileptic protocol: Up to eight adult mice (C57/B16) are injected with kainate (1 nmol in 50 nl) and are implanted with a bipolar electrode in the dorsal hippocampus using stereotaxic techniques under general anesthesia. […] Drug conditions are counter-balanced, the animals being used as their own controls. Digital EEG recordings are performed in freely moving animals for 20 min pre-injection and 80 min post-injection. The effects of the injected compound are compared versus vehicle injections and reference period (pre-dose). Upon completion of the experiment, standard histological analysis are performed to verify electrode location, cell losses in CA1, CA3 and hilus, as well as dentate gyrus dispersion. Only animals with all characteristics of MTLE are used in data analysis. […] The results below are normalized to the pre-dose condition for each of the treatment group including DMSO and saline vehicle controls. Doses of test article compounds were 50 mg/kg for NTP-2014 and NTP-2026 and 150 mg/kg for NTP-2024, NTP-2006, NTP-1007, and NTP-1003. Therefore the bumetanide, furosemide, piretanide, azosemide, and torsemide esters and amide analogs described herein may be used in therapeutic methods to treat seizures.

[2] = system: Male Rj: NMRI mice; experiment: Formalin paw test (late phase) in the mouse; format: in vivo
Description: The method described herein detects analgesic/anti-inflammatory activity, generally used to test compounds for pain relief, in particular diabetic neuropathy or nociceptive neuropathy. See Wheeler-Aceto, et al. (1991) Psychopharmacology 104: 35-44.
Mice were given an intraplantar injection of 5% formalin (25 μl) into the posterior left paw. This treatment induces paw licking in control animals. Mice were briefly observed at 1 minute intervals between 15 and 50 minutes after the injection of formalin and the number of occasions that the mice were observed licking the injected paw was recorded. There were 10 mice per group and the test was performed “blind.”
The experiment included 11 groups. Data was analyzed by comparing treated groups with vehicle control using unpaired Mann-Whitney U tests.
Gabapentin (100 mg/kg i.p.) administered under the same experimental conditions, was used as reference substance. The experiment included several groups. Data was analyzed by comparing treated groups with vehicle control using unpaired Mann-Whitney U tests.

[3] = system: Sprague-Dawley rats; experiment: Kainic acid induced seizures in rats; format: in vivo, rat; design: key to Seizures Severity Mean ± SD (grade 0 to IV): seizure grade 0 = no response to IV = status epilepticus; conditions: 20 μmoles/kg IP; for Seizures Severity Mean ± SD (grade 0 to IV) / Seizures Mean ± SD (1 = yes, 0 = no): KA 15 mg/kg i.p.; for Seizures Mean ± SD (1 = yes, 0 = no): 2 hours; for change in vivo at 20 µmol/kg: Rattus norvegicus, 2 h, vs DMSO control
Description: Formulation of kainic acid was performed by NTS as a stock solution by reconstituting kainic acid with (100%) saline that was stored at 4° C. Vehicle control received saline solution. […] The research investigators were blinded to the treatment groups.
Solutions were prepared fresh daily just prior to use; dosing of all 10 rats with any given compound occurred on a single day after preparing the dosing solution. […] Unused remaining dosing solutions were stored frozen.
Animals were maintained in a temperature- and light-controlled environment in accord with the principles and procedures of the National Institutes of Health Guidelines for Care and Use of Laboratory Animals. Seizures were induced in adult, male Sprague-Dawley rats (260-300 g) by injection of KA (15 mg/kg, i.p.). In addition, animals were injected with test compounds following kainic acid to determine the effects on protection from epilepsy. Animals were monitored behaviorally for seizures for 2 hours after injection.
Seizure activity was initially characterized as either yes (1) or no (0) within a 2 hour period following injection of KA. A seizure severity grade was assigned based on the maximal response achieved on a scale from 0 to IV as follows: 0, no response; I, single limb clonus and scratching; II, multiple limb clonus and staggering gait; […], limb clonus, tonic extension of limbs and falling; IV, continuous grade III seizures for longer than 30 min (status epilepticus).
The results were expressed as the mean±standard deviation (SD). The significance of difference in the epileptic data was analyzed using a one-way analysis of variance (ANOVA) followed by Fisher's post hoc test. Repeated-measures ANOVA were computed on the monitoring data and the significance of the difference among groups were evaluated by Fisher's post hoc test.
All groups were subjected to kainic acid.
The induction of seizures in rats with kainic acid was determined as either yes seizures (1) or no seizures (0).

[4] = target: T1, Na+K+Cl− co-transporter (Rattus norvegicus, UniProt E9PTX9); experiment: Na+K+Cl− cotransporter assay, 86Rb uptake in A7r5 cells; format: cell-based; conditions: 10 minutes at 37° C.; for inhibition at 10 µM: read-out: % Inhibition of Control Values; for remaining activity at 10 µM: read-out: % of Control Value
T1 construct: endogenous in cells; host or cells: A7r5 cells
T1 sequence (E9PTX9 1-1203): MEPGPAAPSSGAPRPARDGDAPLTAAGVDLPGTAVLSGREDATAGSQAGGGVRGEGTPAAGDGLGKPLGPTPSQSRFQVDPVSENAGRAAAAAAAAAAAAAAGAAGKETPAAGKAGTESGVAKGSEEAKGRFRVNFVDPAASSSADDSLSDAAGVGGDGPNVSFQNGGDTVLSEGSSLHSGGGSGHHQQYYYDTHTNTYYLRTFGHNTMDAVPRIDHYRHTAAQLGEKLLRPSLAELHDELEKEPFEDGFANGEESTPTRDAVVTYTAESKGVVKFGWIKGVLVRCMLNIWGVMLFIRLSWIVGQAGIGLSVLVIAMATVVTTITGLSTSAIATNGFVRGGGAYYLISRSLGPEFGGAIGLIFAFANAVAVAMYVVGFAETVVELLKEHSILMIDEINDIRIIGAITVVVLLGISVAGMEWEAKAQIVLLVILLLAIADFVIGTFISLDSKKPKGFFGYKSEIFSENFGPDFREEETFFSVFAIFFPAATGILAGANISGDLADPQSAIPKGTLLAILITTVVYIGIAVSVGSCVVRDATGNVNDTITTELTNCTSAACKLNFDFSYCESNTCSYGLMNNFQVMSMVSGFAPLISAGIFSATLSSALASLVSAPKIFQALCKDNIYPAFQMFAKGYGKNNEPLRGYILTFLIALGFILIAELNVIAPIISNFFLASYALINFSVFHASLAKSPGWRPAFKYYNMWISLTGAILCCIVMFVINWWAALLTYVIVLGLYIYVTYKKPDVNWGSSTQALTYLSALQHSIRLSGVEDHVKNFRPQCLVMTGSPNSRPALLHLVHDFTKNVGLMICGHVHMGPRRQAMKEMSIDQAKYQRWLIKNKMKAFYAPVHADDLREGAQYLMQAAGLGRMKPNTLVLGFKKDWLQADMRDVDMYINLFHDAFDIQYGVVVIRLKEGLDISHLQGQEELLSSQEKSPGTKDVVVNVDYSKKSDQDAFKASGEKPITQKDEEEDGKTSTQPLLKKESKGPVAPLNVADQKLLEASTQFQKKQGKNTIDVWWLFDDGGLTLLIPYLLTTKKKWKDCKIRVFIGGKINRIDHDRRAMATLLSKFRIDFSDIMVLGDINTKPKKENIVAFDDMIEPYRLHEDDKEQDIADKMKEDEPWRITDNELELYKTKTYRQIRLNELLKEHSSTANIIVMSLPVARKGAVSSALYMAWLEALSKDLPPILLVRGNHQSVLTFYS
Description: Na^+K^+Cl^− co-transporter activity was measured in vitro in A7r5 cells by measuring their uptake of ^86Rb (0.2 μCi) in 10 minutes at 37° C. as detected by scintillation counting. See Chassande, et al. (1988) “The Na^+/K^+/Cl^− Cotransport in C6 glioma cells. Properties and role in volume regulation.” Eur. J. Biochem. 171: 425433.

[5] = system: mouse; experiment: Formalin test (acute/early and late phase) in mice; format: in vivo; conditions: 150 mg/kg i.p., mice
Description: The formalin test was performed according to the method of Tjølsen, et al. (October 1992) “The formalin test: an evaluation of the method.” Pain 51(1): 5-17. An injection of 0.5% formalin is made into the plantar region of the right hind paw of a mouse. This elicits a distinct behavioral profile in response to the formalin injection characterized by the mouse licking the affected paw. The behavior is characteristically biphasic in nature. For example, immediately following the injection the mouse intensely licks the paw for approximately 5-10 minutes (“min.”) This initial behavior was considered phase 1 (acute) and is thought to be mediated primarily by chemical activation of local C-fibers. The acute phase is followed by a brief latent (usually <5 min) period where there is little or no behavioral activity. A more prolonged (about 20 to 30 min) period of licking then ensues which constitutes phase 2 of the response (late phase). See e.g., Tjølsen, et al. (Feb. 7, 1991) “Antinociceptive effect of paracetamol in rats is partly dependent on spinal serotonergic systems. Eur J Pharmacol. 193(2): 193-201 and Tjølsen, et al. (June 1991) Lesions of bulbo-spinal serotonergic or noradrenergic pathways reduce nociception as measured by the formalin test. Acta Physiol Scand. 142(2): 229-36, the disclosures of each of which are hereby incorporated by reference in its entirety.
It is in these tubes that mice are later observed for the licking activity for the duration of the experiment. Following the conditioning, the test substance was administered i.p. in a dose equivalent to the MES ED50 and the mouse returned to its home tube. At the TPE of the drug, the formalin is injected subdermally into the plantar surface of the right hind foot. It is given in a volume of 20 μl with a 27 gauge stainless steel needle attached to a Hamilton syringe. The bevel of the needle was placed facing down toward the skin surface. […] The cumulative length of licking for each 2-min time period was measured. […] Animals are euthanized following the conclusion of the experiment.
Area under the curve (AUC) and subsequent percent of control for drug-treated animal groups is determined using the GraphPad Prism Version 3.03. Total AUC was calculated for both the test and control groups for both the acute and inflammatory phases. The AUC for individual animals for each phase was also calculated and converted to percentage of total AUC of control. The average and S.E.M. for both the drug treated and control percentages were calculated and tested for significant difference.

[6] = read-out: Percent reduction in Seizures
[7] = read-out: Percent reduction in Seizures Severity

Structure (SMILES) | Cumulative duration of hippocampal discharges [1] | Number of hippocampal discharges [1] | Licking Score % Pain Decrease ([2]; 50 μmol/kg i.p.) [%] | Licking Score % Pain Decrease ([2]; 250 μmol/kg i.p.) [%] | Licking Score % Pain Decrease ([2]; 500 μmol/kg i.p.) [%] | Anti-inflammatory and analgesic effects in formalin paw test (FIG. 16) ([2]; 50, 250, 500 μmole/kg) | Licking Score (15 to 50 minutes post-formalin injection) % Change from Control ([2]; i.p. 30 minutes before the test, 50 μmol/kg (NTP-2006 23.9, NTP-2024 21.7, NTP-1007 19.3, NTP-2014 21, NTP-2026 23.1 mg/kg)) [%] | Licking Score (15 to 50 minutes post-formalin injection) % Change from Control ([2]; i.p., 250 μmol/kg (NTP-2006 119, NTP-2024 108, NTP-1007 96.5, NTP-2014 105, NTP-2026 116 mg/kg)) [%] | Licking Score (15 to 50 minutes post-formalin injection) % Change from Control ([2]; i.p., 500 μmol/kg (NTP-2006 239, NTP-2024 217, NTP-1007 193, NTP-2014 210, NTP-2026 231 mg/kg)) [%] | Seizures Severity Mean ± SD (grade 0 to IV) [3] | Seizures Mean ± SD (1 = yes, 0 = no) [3] | change in vivo at 20 µmol/kg [3, 6] [%] | change in vivo at 20 µmol/kg [3, 7] [%] | inhibition at 10 µM [4] [%] | remaining activity at 10 µM [4] [%] | % of Control, Acute [5] [%] | % of Control, Late Phase [5] [%] | Treated (AUC of licking time), Acute [5] | Treated (AUC of licking time), Late Phase [5]
CCN(CC)C(=O)c1cc(S(N)(=O)=O)c(Cl)cc1NCc1ccco1 [NTP-1007, N,N-Diethyl 5-Aminosulfonyl-4-chloro-2-[(2-furanylmethyl)amino]benzamide] | decreased | decreased | 9 | 13 | 66 | show anti-inflammatory and analgesic effects | −9 | −13 | −66 |  |  |  |  |  |  |  |  |  | 
CCCCNc1cc(C(=O)N(Cc2ccccc2)Cc2ccccc2)cc(S(N)(=O)=O)c1Oc1ccccc1 [NTP-2008, N,N-Dibenzyl 3-Aminosulfonyl-5-butylamino-4-phenoxybenzamide] |  |  |  |  |  |  |  |  |  | 0.1000 ± 0.3162 | 0.1000 ± 0.3162 | -88.9 | -95.8 | 17 | 82.8 | 63.69 | 10.66 | 73.94 | 66.42
CCCCNc1cc(C(=O)OCC(=O)N(C)C)cc(S(N)(=O)=O)c1Oc1ccccc1 [NTP-2011, N,N-Dimethylaminocarbonylmethyl 3-Aminosulfonyl-5-butylamino-4-phenoxybenzoate] |  |  |  |  |  |  |  |  |  | 0.3000 ± 0.6749 | 0.2000 ± 0.4216 | -77.8 | -87.5 | 13 | 87.4 | 53.37 | 0.72 | 78.55 | 5.43
CCCCNc1cc(C(=O)OCOC(=O)C(C)(C)C)cc(S(N)(=O)=O)c1Oc1ccccc1 [NTP-2012, t-Butylcarbonyloxymethyl 3-Aminosulfonyl-5-butylamino-4-phenoxybenzoate] |  |  |  |  |  |  |  |  |  | 0.2000 ± 0.4216 | 0.2000 ± 0.4216 | -77.8 | -91.7 | 35 | 65.5 | 48.5 | 0.49 | 75.07 | 5.08
